Key:
heart muscle = experiment: myocardial (heart) perfusion in canines, electromagnetic flow meter, sublingual administration; format: in vivo; conditions: for % Increase in Heart Perfusion / Half-life duration (of heart perfusion increase): canines
From the text: The ability of the compound to assist in the perfusion action of the heart muscle can be conveniently observed in recognized pharmacological models. For example, the myocardial perfusion in canines can be observed utilizing an electromagnetic flow meter. Upon sublingual administration to canines, the following pharmacological manifestations are, for example, observed.

[1] = blood pressure decrease in canines upon sublingual administration; format: in vivo; conditions: for Blood Pressure Decrease (%): canines
stability towards light = format: physicochemical; conditions: compared with previously known 1,4-dihydropyridines
coronary perfusion = experiment: coronary activity / effect on coronary perfusion (general statement); format: in vivo

Q: With `COC(=O)C1=C(C)NC(C)=C(C(=O)OCC(C)C)C1c1ccccc1[N+](=O)[O-]` (stereo not shown) [the compound, isobutyl methyl 1,4-dihydro-2,6-dimethyl-4-(2-nitrophenyl)-3,5-pyridinedicarboxylate] as the molecule, how does the “% Increase in Heart Perfusion” value (heart muscle; 0.003 mg/kg sublingual) read?
A: 23%

Q: What about the “Half-life duration (of heart perfusion increase)” value (heart muscle; 0.003 mg/kg sublingual) of the same molecule?
A: 1.67 h

Q: And the “% Increase in Heart Perfusion” value (heart muscle; 0.01 mg/kg sublingual)?
A: 46%

Q: What about the “Half-life duration (of heart perfusion increase)” value (heart muscle; 0.01 mg/kg sublingual) of the same molecule?
A: 2.22 h

Q: And the “% Increase in Heart Perfusion” value (heart muscle; 0.1 mg/kg sublingual)?
A: 142%

Q: And the “Half-life duration (of heart perfusion increase)” value (heart muscle; 0.1 mg/kg sublingual)?
A: 3.07 h

Q: And the “increase of perfusion of the heart muscle, dose dependence (in words)” value (heart muscle; sublingual administration)?
A: increases the perfusion of the heart muscle and that this action is a function of dose

Q: What about the “onset of action after sublingual administration” value (heart muscle; sublingual administration) of the same molecule?
A: a few minutes after sublingual administration

Q: What about the “total duration of action on heart muscle perfusion” value (heart muscle; sublingual administration, depending upon the dose) of the same molecule?
A: 2 to 6 h

Q: What about the “Blood Pressure Decrease (%)” value ([1]; 0.003 mg/kg sublingual) of the same molecule?
A: .phi.

Q: And the “Blood Pressure Decrease (%)” value ([1]; 0.01 mg/kg sublingual)?
A: 5%

Q: What about the “Blood Pressure Decrease (%)” value ([1]; 0.1 mg/kg sublingual) of the same molecule?
A: 13%

Q: What about the “lowering of blood pressure (in words)” value ([1]; sublingual administration) of the same molecule?
A: slight and equally long lasting lowering of blood pressure

Q: What about the stability towards light (stability towards light) of the same molecule?
A: considerably greater stability towards light than previously known 1,4-dihydropyridines

Q: And the “coronary activity, magnitude and length of action” value (coronary perfusion; compared with any 1,4-dihydropyridine presently known)?
A: significantly greater than any 1,4-dihydropyridine presently known

Q: And the “effect on coronary perfusion (in words)” value (coronary perfusion; in vivo)?
A: powerful and long acting effect on coronary perfusion
